Assays:
TEAD3 = TEAD3 (Homo sapiens (Human), UniProt Q99594); assay: TR-FRET lipid pocket probe competition assay (Lipid HTRF), TEAD3; assay type: binding; conditions: 4 hours pre-incubation; read-out: Lipid HTRF TEAD3 IC50
Method: (§1) His-tagged TEAD proteins are pre-incubated with TEAD project compounds for 30 minutes or 4 hours at room temperature. Biotinylated lipid pocket probes are then added to the TEAD/Compound mixture and incubated for 60 minutes at room temperature. The lipid pocket probe competes with the test compound for the TEAD lipid pocket until equilibrium is reached. After 60 minutes, Europium labelled anti-His (Perkin Elmer #AD0110) and XL665 labelled streptavidin (CIS Bio 610SAXAC) are added to the TEAD/test compound/lipid pocket mixture and incubated for 30 minutes or 4 hours. […] If a TEAD lipid pocket binder such as binds and displaces the lipid pocket probe, the disruption of the TEAD:probe interaction results in a decrease in TR-FRET signal. The potency of compounds as TEAD lipid pocket binders is determined by IC50 value generated using a non-linear 4 parameter curve fit.

TEAD1 = TEAD1 (Homo sapiens (Human), UniProt P28347); assay: TR-FRET lipid pocket probe competition assay (Lipid HTRF), TEAD1; assay type: binding; conditions: 4 hours pre-incubation; read-out: Lipid HTRF TEAD1 IC50;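 note: His-tagged TEAD1 with biotinylated probe, detected via Europium anti-His and XL665 streptavidin, probe displacement lowers TR-FRET signal, IC50 from four-parameter nonlinear fit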
Method: as §1

TEAD2 = TEAD2 (Homo sapiens (Human), UniProt Q15562);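 note: TR-FRET competition assay with His-tagged TEAD protein and a biotinylated lipid pocket probe, compound pre-incubated 30 min or 4 h at room temperature, displacement lowers signal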
TEAD4 = TEAD4 (Homo sapiens (Human), UniProt Q15561); assay: TR-FRET lipid pocket probe competition assay (Lipid HTRF), TEAD4; assay type: binding; conditions: 4 hours pre-incubation; read-out: Lipid HTRF TEAD4 IC50;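 note: His-tagged TEAD4 with biotinylated lipid-pocket probe, read by Europium anti-His and XL665 streptavidin, where probe displacement lowers the TR-FRET signal, IC50 from a four-parameter fit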
Sequence of TEAD4 (Q15561 whole entry, species assumed): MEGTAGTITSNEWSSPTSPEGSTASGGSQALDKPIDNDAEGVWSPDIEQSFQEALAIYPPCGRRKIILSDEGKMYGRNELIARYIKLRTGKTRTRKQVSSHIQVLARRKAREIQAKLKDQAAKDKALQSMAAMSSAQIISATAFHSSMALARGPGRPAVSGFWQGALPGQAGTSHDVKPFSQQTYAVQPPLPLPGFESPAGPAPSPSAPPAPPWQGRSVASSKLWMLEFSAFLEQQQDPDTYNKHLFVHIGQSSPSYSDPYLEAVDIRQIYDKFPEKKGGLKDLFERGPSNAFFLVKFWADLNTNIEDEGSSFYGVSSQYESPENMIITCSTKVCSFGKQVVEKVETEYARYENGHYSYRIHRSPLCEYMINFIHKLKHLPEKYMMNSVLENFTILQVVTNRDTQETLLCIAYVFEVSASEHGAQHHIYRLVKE

Sequence of TEAD3 (Q99594 whole entry, species assumed): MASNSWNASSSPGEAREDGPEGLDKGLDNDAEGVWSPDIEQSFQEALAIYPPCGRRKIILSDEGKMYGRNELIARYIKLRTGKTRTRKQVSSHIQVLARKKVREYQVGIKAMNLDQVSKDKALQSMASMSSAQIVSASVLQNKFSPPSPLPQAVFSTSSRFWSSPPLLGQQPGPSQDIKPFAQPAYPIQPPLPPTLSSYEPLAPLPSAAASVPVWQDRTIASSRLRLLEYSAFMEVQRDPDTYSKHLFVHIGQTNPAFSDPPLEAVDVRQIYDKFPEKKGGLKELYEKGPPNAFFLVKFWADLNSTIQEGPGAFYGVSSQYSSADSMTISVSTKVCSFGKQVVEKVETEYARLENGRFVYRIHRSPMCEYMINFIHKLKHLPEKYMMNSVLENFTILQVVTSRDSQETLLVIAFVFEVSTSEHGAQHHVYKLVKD
Sequence of TEAD1 (P28347 whole entry, species assumed): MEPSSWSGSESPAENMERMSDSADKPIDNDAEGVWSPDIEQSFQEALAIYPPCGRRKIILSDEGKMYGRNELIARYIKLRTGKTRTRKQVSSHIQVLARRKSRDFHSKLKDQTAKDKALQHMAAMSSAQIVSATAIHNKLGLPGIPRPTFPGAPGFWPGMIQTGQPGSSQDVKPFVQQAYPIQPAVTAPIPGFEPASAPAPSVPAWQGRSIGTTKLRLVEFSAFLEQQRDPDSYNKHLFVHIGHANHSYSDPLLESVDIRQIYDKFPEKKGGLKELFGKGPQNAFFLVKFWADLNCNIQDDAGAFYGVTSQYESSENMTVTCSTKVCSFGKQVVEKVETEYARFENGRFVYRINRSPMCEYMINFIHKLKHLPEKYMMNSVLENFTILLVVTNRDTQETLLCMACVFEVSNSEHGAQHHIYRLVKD
Sequence of TEAD2 (Q15562 whole entry, species assumed): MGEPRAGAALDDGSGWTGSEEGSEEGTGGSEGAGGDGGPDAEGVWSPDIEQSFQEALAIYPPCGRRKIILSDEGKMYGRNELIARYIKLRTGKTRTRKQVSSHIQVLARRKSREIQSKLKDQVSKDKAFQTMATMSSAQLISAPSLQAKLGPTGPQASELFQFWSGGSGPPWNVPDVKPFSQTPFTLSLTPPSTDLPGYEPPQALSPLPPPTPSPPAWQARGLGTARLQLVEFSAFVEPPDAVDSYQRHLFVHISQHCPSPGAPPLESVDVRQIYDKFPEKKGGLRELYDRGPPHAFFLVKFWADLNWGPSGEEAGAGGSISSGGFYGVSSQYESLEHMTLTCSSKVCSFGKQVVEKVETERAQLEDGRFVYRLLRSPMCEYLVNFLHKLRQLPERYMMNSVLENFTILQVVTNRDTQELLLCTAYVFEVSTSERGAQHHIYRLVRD

IC50 (TEAD3) [µM]	IC50 (TEAD1) [µM]	IC50 (TEAD2) [µM]	IC50 (TEAD4) [µM]	SMILES
0.84	0.042	0.019	0.0054	C=C(F)C(=O)N1CC(c2nn(-c3ccc(OC(F)(F)F)cc3)c3nccc(N4CC(F)(CO)C4)c23)C1 [Compound 39, 2-Fluoro-1-(3-(4-(3-fluoro-3-(hydroxymethyl)azetidin-1-yl)-1-(4-(trifluoromethoxy)phenyl)-1H-pyrazolo[3,4-b]pyridin-3-yl)azetidin-1-yl)prop-2-en-1-one]
0.066	0.016	0.048	0.013	COC/C=C/C(=O)N1CC(c2nn(-c3ccc(OC(F)(F)F)cc3)c3nccc(CO)c23)C1 [Compound 40, (E)-1-(3-(4-(Hydroxymethyl)-1-(4-(trifluoromethoxy)phenyl)-1H-pyrazolo[3,4-b]pyridin-3-yl)azetidin-1-yl)-4-methoxybut-2-en-1-one]
0.027	0.02	0.2	0.025	C=C(F)C(=O)N1CC(c2nn(-c3ccc(OC(F)(F)F)cc3)c3nccc(NC(=O)CO)c23)C1 [Compound 42, N-(3-(1-(2-Fluoroacryloyl)azetidin-3-yl)-1-(4-(trifluoromethoxy)phenyl)-1H-pyrazolo[3,4-b]pyridin-4-yl)-2-hydroxyacetamide]
0.78	0.013	0.054	0.0046	C=CC(=O)NCc1nn(-c2ccc(OC(F)(F)F)cc2)c2nccc(N3CC(CO)C3)c12 [Compound 43, N-((4-(3-(hydroxymethyl)azetidin-1-yl)-1-(4-(trifluoromethoxy)phenyl)-1H-pyrazolo[3,4-b]pyridin-3-yl)methyl)acrylamide]
50	0.25	1.5	0.34	C=C(F)C(=O)N1CC(c2nn(-c3ccc(OC(F)(F)F)cc3)c3nccc(-c4cnn(CCN(C)C)c4)c23)C1 [Compound 45, 1-(3-(4-(1-(2-(Dimethylamino)ethyl)-1H-pyrazol-4-yl)-1-(4-(trifluoromethoxy)phenyl)-1H-pyrazolo[3,4-b]pyridin-3-yl)azetidin-1-yl)-2-fluoroprop-2-en-1-one]
2.1	0.05	0.15	0.013	C=CC(=O)NCc1nn(-c2ccc(OC(F)(F)F)cc2)c2nccc(N3CC[C@H](O)C3)c12 [Compound 46, (S)-N-((4-(3-hydroxypyrrolidin-1-yl)-1-(4-(trifluoromethoxy)phenyl)-1H-pyrazolo[3,4-b]pyridin-3-yl)methyl)acrylamide]
2	0.033	0.1	0.011	C=CC(=O)NCc1nn(-c2ccc(OC(F)(F)F)cc2)c2nccc(N3CC[C@@H](O)C3)c12 [Compound 47, (R)-N-((4-(3-hydroxypyrrolidin-1-yl)-1-(4-(trifluoromethoxy)phenyl)-1H-pyrazolo[3,4-b]pyridin-3-yl)methyl)acrylamide]
0.0048	0.0035	0.0023	0.00088	C#Cc1ccnc2c1c(C1CN(C(=O)C=C)C1)nn2-c1ccc(OC(F)(F)F)cc1 [Compound 48, 1-(3-(4-Ethynyl-1-(4-(trifluoromethoxy)phenyl)-1H-pyrazolo[3,4-b]pyridin-3-yl)azetidin-1-yl)prop-2-en-1-one]
0.2	0.024	0.075	0.0095	O=C(/C=C/CO)N1CC(c2nn(-c3ccc(OC(F)(F)F)cc3)c3nccc(-c4cn[nH]c4)c23)C1 [Compound 50, (E)-1-(3-(4-(1H-Pyrazol-4-yl)-1-(4-(trifluoromethoxy)phenyl)-1H-pyrazolo[3,4-b]pyridin-3-yl)azetidin-1-yl)-4-hydroxybut-2-en-1-one]
0.51	0.032	0.12	0.015	C=CC(=O)NCc1nn(-c2ccc(OC(F)(F)F)cc2)c2nccc(-c3c[nH]nn3)c12 [Compound 51, N-((4-(1H-1,2,3-Triazol-4-yl)-1-(4-(trifluoromethoxy)phenyl)-1H-pyrazolo[3,4-b]pyridin-3-yl)methyl)acrylamide]
3.5	0.014	0.045	0.0034	C=CC(=O)NCc1nn(-c2ccc(OC(F)(F)F)cc2)c2nccc(N3CC(C#N)C3)c12 [Compound 52, N-((4-(3-Cyanoazetidin-1-yl)-1-(4-(trifluoromethoxy)phenyl)-1H-pyrazolo[3,4-b]pyridin-3-yl)methyl)acrylamide]
50	0.045	0.036	0.0035	O=C(/C=C\Cl)NCc1nn(-c2ccc(OC(F)(F)F)cc2)c2nccc([C@H](O)CO)c12 [Compound 53, (S,Z)-3-chloro-N-((4-(1,2-dihydroxyethyl)-1-(4-(trifluoromethoxy)phenyl)-1H-pyrazolo[3,4-b]pyridin-3-yl)methyl)acrylamide]
10	0.49	0.73	0.86	C=CC(=O)NCc1nn(-c2ccc(OC(F)(F)F)cc2)c2nccc(CN3CC(O)C3)c12 [Compound 54, N-((4-((3-Hydroxyazetidin-1-yl)methyl)-1-(4-(trifluoromethoxy)phenyl)-1H-pyrazolo[3,4-b]pyridin-3-yl)methyl)acrylamide]
0.16	0.017	0.12	0.012	C=CC(=O)N(C)Cc1nn(-c2ccc(OC(F)(F)F)cc2)c2nccc(CO)c12 [Compound 55, N-((4-(Hydroxymethyl)-1-(4-(trifluoromethoxy)phenyl)-1H-pyrazolo[3,4-b]pyridin-3-yl)methyl)-N-methylacrylamide]
50	0.039	0.085	0.011	C=CC(=O)NCc1nn(-c2ccc(OC(F)(F)F)cc2)c2nccc([C@H]3C[C@H](O)C3)c12 [Compound 56, N-((4-(trans-3-hydroxycyclobutyl)-1-(4-(trifluoromethoxy)phenyl)-1H-pyrazolo[3,4-b]pyridin-3-yl)methyl)acrylamide]
0.35	0.036	0.037	0.0051	C=C(F)C(=O)N1CC(c2nn(-c3ccc(OC(F)(F)F)cc3)c3nccc(N4CC(F)(C(N)=O)C4)c23)C1 [Compound 57, 3-Fluoro-1-(3-(1-(2-fluoroacryloyl)azetidin-3-yl)-1-(4-(trifluoromethoxy)phenyl)-1H-pyrazolo[3,4-b]pyridin-4-yl)azetidine-3-carboxamide]
50	0.038	0.07	0.0096	C=C(F)C(=O)N1CC(c2nn(-c3ccc(OC(F)(F)F)cc3)c3nccc(N4CC([C@@H](O)CO)C4)c23)C1 [Compound 58, (R)-1-(3-(4-(3-(1,2-Dihydroxyethyl)azetidin-1-yl)-1-(4-(trifluoromethoxy)phenyl)-1H-pyrazolo[3,4-b]pyridin-3-yl)azetidin-1-yl)-2-fluoroprop-2-en-1-one]
0.86	0.058	0.071	0.013	C=CC(=O)NCc1nn(-c2ccc(OC(F)(F)F)cc2)c2nccc([C@@H](C)O)c12 [Compound 62, (R)-N-((4-(1-Hydroxyethyl)-1-(4-(trifluoromethoxy)phenyl)-1H-pyrazolo[3,4-b]pyridin-3-yl)methyl)acrylamide]
10.5	0.135	0.123	0.0785	C=CC(=O)NCc1nn(-c2ccc(OC(F)(F)F)cc2)c2nccc([C@H](C)O)c12 [Compound 63, (S)-N-((4-(1-hydroxyethyl)-1-(4-(trifluoromethoxy)phenyl)-1H-pyrazolo[3,4-b]pyridin-3-yl)methyl)acrylamide]
1.3	0.023	0.17	0.021	C=C(F)C(=O)N1CC(c2nn(-c3ccc(OC(F)(F)F)cc3)c3nccc(-n4ccnc4)c23)C1 [Compound 64, 1-(3-(4-(1H-Imidazol-1-yl)-1-(4-(trifluoromethoxy)phenyl)-1H-pyrazolo[3,4-b]pyridin-3-yl)azetidin-1-yl)-2-fluoroprop-2-en-1-one]
0.34	0.044	0.18	0.033	C[C@@H](O)/C=C/C(=O)N1CC(c2nn(-c3ccc(OC(F)(F)F)cc3)c3nccc(CO)c23)C1 [Compound 66, (R,E)-4-Hydroxy-1-(3-(4-(hydroxymethyl)-1-(4-(trifluoromethoxy)phenyl)-1H-pyrazolo[3,4-b]pyridin-3-yl)azetidin-1-yl)pent-2-en-1-one]
0.98	0.071	0.55	0.14	C=C(F)C(=O)NCc1nn(-c2ccc(OC(F)(F)F)cc2)c2nccc(CO)c12 [Compound 68, 2-Fluoro-N-((4-(hydroxymethyl)-1-(4-(trifluoromethoxy)phenyl)-1H-pyrazolo[3,4-b]pyridin-3-yl)methyl)acrylamide]
0.14	0.017	0.037	0.0036	O=C(/C=C/CO)N1CC(c2nn(-c3ccc(OC(F)(F)F)cc3)c3nccc(N4CC(O)C4)c23)C1 [Compound 70, (E)-4-Hydroxy-1-(3-(4-(3-hydroxyazetidin-1-yl)-1-(4-(trifluoromethoxy)phenyl)-1H-pyrazolo[3,4-b]pyridin-3-yl)azetidin-1-yl)but-2-en-1-one]

SMILES	IC50 (TEAD3) [µM]	IC50 (TEAD1) [µM]	IC50 (TEAD2) [µM]	IC50 (TEAD4) [µM]
C=CC(=O)NCc1nn(-c2ccc(OC(F)(F)F)cc2)c2nccc(O[C@H]3C[C@H](O)C3)c12 [Compound 67, N-((4-(trans-3-Hydroxycyclobutoxy)-1-(4-(trifluoromethoxy)phenyl)-1H-pyrazolo[3,4-b]pyridin-3-yl)methyl)acrylamide]	50	0.101	0.365	0.031
